Molecules are shown by their SMILES. pIC50: −log10 of the molar value. Counter-ions that a name gives are not always drawn. Like-named read-outs stand apart in the source and are kept apart here.

Test [1] deals with T1, recombinant human MAO-B (Homo sapiens, UniProt P27338).
T1 sequence (P27338 1-520): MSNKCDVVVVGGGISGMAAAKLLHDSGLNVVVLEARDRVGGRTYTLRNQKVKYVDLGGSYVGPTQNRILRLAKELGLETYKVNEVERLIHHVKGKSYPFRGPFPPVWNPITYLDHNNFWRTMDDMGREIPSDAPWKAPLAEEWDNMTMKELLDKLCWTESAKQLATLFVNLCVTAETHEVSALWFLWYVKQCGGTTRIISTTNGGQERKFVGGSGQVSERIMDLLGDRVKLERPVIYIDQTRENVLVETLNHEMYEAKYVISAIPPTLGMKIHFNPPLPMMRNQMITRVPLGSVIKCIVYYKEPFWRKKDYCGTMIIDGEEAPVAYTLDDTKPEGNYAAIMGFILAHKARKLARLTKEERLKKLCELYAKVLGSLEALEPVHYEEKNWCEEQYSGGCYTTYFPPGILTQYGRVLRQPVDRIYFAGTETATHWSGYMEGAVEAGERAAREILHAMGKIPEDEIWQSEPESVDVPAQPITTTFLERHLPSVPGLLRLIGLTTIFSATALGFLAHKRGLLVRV
Kind of test: Cell-free Fluorescent Monoamine Oxidase A&B Detection Assay, MAO-B. To be noted: for pIC50: read-out: IC50 MAO-B. It counts as biochemical. Here is the method: (§1) The assay was repeated to confirm data.
(§2) MAO B specific inhibitory activity and selectivity over MAO A is assayed using a commercial kit [Fluoro MAO A and B detection kit (Cell Technology Inc™)]. This kit uses a non-fluorescent detection reagent to measure H2O2 released from the conversion of an MAO A and MAO B substrate specific to its aldehyde. Furthermore, H2O2 oxidizes the detection reagent in a 1:1 stoichiometry to produce a fluorescent product (resorufin). […] This information is then provided to the medicinal chemists to help direct synthesis of subsequent iterations.

For test [2], the target named is T2, recombinant human MAO-A (Homo sapiens, UniProt P21397).
T2 sequence (P21397 1-527): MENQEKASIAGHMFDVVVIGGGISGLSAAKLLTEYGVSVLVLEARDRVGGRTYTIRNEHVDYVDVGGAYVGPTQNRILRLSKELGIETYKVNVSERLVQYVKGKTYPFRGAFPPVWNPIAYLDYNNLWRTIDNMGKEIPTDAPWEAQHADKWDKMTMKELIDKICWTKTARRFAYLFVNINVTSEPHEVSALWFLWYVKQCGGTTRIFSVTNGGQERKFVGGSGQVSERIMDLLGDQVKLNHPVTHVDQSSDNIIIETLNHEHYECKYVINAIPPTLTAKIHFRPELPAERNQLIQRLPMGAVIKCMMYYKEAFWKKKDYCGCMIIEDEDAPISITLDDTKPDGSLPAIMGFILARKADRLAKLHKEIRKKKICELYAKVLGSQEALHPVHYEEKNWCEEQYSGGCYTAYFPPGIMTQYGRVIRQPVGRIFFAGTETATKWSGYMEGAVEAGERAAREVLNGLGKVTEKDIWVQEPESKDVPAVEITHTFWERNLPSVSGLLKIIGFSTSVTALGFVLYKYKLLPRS
Kind of test: Cell-free Fluorescent Monoamine Oxidase A&B Detection Assay, MAO-A. Format: biochemical. Here is the method:
as §1, §2

The mark [3] stands for this setting: cell-free, recombinant human MAO-A.

Turning to `O=C(O)c1coc(Cc2ccc(OCc3ccccc3)cc2)n1` [PS-AD0031], the “IC90 MAO-B (μM)” value in test [1] is “Does not”. Moreover, in test [2] (setting [3]), the “IC50 MAO-A (μM)” value was “Does not”.

Regarding `C[C@H](Cc1ccc(OCc2cc(Cl)ccc2Cl)cc1)N(C)CC(=O)O.Cl` [PS-AD0064, (R)—N-(1-(4-((2,5-dichlorobenzyl)oxy)phenyl)propan-2-yl)-N-methylglycine hydrochloride], in test [1], the IC90 turned out to be 25.8 µM and the pIC50 is 5.90. Also, the “IC50 MAO-A (μM)” value in test [2] (setting [3]) is recorded as “Does not”.

As to `C[C@H](Cc1ccc(OCc2ccc(C(=O)O)cc2)cc1)N(C)CC(=O)O.Cl` [PS-AD0065 B, (R)-4-((4-(2-((carboxymethyl)(methyl)amino)propyl)phenoxy)methyl)benzoic acid hydrochloride], in test [1], the IC90 worked out at 149 µM and the pIC50 is 5.00. Moreover, the “IC50 MAO-A (μM)” value in test [2] (setting [3]) was “Does not”.

On to `C[C@H](Cc1ccc(OCc2ccc(C#N)cc2)cc1)N(C)CC(=O)O.Cl` [PS-AD0065, (R)—N-(1-(4-((4-cyanobenzyl)oxy)phenyl)propan-2-yl)-N-methylglycine hydrochloride], for which, in test [1], the 90% effect concentration (IC90) is 81.1 µM and the pIC50 was 5.48. Further, in test [2] (setting [3]), the “IC50 MAO-A (μM)” value is listed as “Does not”.

Turning to `C[C@H](Cc1ccc(OCc2ccncc2)cc1)N(C)CC(=O)O.Cl.Cl` [PS-AD0068, (R)—N-methyl-N-(1-(4-(pyridin-4-ylmethoxy)phenyl)propan-2-yl)glycine hydrochloride], in test [1], the IC90 stood at 506 µM and the pIC50 is 4.70. Further, the “IC50 MAO-A (μM)” value in test [2] (setting [3]) was “Does not”.

As for `CN(CC(=O)O)[C@H](CCl)Cc1ccc(OCc2ccccc2)cc1` [PS-AD0095, (S)—N-(1-(4-(benzyloxy)phenyl)-3-chloropropan-2-yl)-N-methylglycine], in test [1], the IC90 is 13.4 µM and the pIC50 is 5.85. Besides, the “IC50 MAO-A (μM)” value in test [2] (setting [3]) is “Does not”.

Consider `CN(CC(=O)O)[C@H](CCO)Cc1ccc(OCc2ccccc2)cc1.Cl` [PS-AD0179, (S)—N-(1-(4-(benzyloxy)phenyl)-4-hydroxybutan-2-yl)-N-methylglycine], for which, in test [1], the IC90 amounted to 167 µM and the pIC50 is 5.11. Besides, the “IC50 MAO-A (μM)” value in test [2] (setting [3]) was “Does not”.

On to `CN(CC(=O)O)[C@H](CC#N)Cc1ccc(OCc2ccccc2)cc1.Cl` [PS-AD0186, (S)—N-(1-(4-(benzyloxy)phenyl)-3-cyanopropan-2-yl)-N-methylglycine], for which, in test [1], the IC90 stood at 4.44 µM and the pIC50 is 6.25. In addition, the “IC50 MAO-A (μM)” value in test [2] (setting [3]) was “Does not”.

For `C[C@H](Cc1ccc(OCc2cnc3ncccn23)cc1)N(C)CC(=O)O.Cl` [PS-AD0223], the “IC90 MAO-B (μM)” value in test [1] is on record as “Does not”. Moreover, in test [2] (setting [3]), the “IC50 MAO-A (μM)” value is reported as “Does not”.

For the compound `C[C@H](Cc1ccc(Oc2ccccc2)cc1)N(C)CC(=O)O` [PS-RG0008, N—((R)-(1-(4-(phenoxy)phenyl)propan-2-yl)(methyl))glycine hydrochloride], in test [1], the IC90 came to 331 µM and the pIC50 was 4.16. For the same compound, the “IC50 MAO-A (μM)” value in test [2] (setting [3]) was “Does not”.

Consider `CN(CC(=O)O)Cc1ccccc1.Cl` [PS-RG0019], for which the “IC90 MAO-B (μM)” value in test [1] was “Does not”. Moreover, in test [2] (setting [3]), the “IC50 MAO-A (μM)” value is “Does not”.

As for `CN(CCc1ccccc1)CC(=O)O.Cl` [PS-RG0020], in test [1], the “IC90 MAO-B (μM)” value is listed as “Does not”. The “IC50 MAO-A (μM)” value in test [2] (setting [3]) is listed as “Does not”.

As to `C[C@H](Cc1ccc(OCc2ccccc2)cc1)N(C)CC(=O)O` [PS-RG0031A, N—((R)-(1-(4-(benzyloxy)phenyl)propan-2-yl)(methyl))glycine hydrochloride], in test [1], the 90% effect concentration (IC90) worked out at 30.5 µM and the pIC50 was 6.04. Moreover, in test [2] (setting [3]), the “IC50 MAO-A (μM)” value is “Does not”.

Take `CN(CCc1ccc(Oc2ccccc2)cc1)CC(=O)O.Cl` [PS-RG0058]: in test [1], the “IC90 MAO-B (μM)” value was “Does not”. In addition, in test [2] (setting [3]), the “IC50 MAO-A (μM)” value is on record as “Does not”.

As for `C#CCN(C)[C@H](C)Cc1ccc(OCc2ccccc2)cc1` [PS-RG0061], in test [1], the IC90 is 0.023 µM and the pIC50 is 8.34. The IC50 in test [2] (IC50 MAO-A (μM), cell-free, recombinant human MAO-A) worked out at 0.163 µM. For the same compound, in test [2] (read-out: IC90 MAO-A (μM)), the IC90 is 1.05 µM.

As for `CN(CCc1ccc(OCc2ccccc2)cc1)CC(=O)O.Cl` [PS-RG0064, N,N-(4-(Benzyloxy)phenethyl)(methyl)glycine hydrochloride], in test [1], the IC90 was determined as 252 µM and the pIC50 is 5.14. Moreover, the “IC50 MAO-A (μM)” value in test [2] (setting [3]) is recorded as “Does not”.

Consider `C#CCN(C)CCc1ccccc1` [PS-RG0070], for which the IC90 in test [1] stood at 0.0306 µM; in test [2] (cell-free, recombinant human MAO-A, read-out: IC90 MAO-A) it was 126 µM. The IC50 in test [1] (IC50 MAO-B (μM)) came out at 0.0107 µM. Also, in test [2] (cell-free, recombinant human MAO-A, read-out: IC50 MAO-A), the pIC50 was 4.90.

`CN(CC(=O)O)C(=O)C=C1COc2cc(Oc3ccccc3)ccc21` [PS-RG0080]: in test [1], the “IC90 MAO-B (μM)” value is recorded as “Does not”. For the same compound, the “IC50 MAO-A (μM)” value in test [2] (setting [3]) was “Does not”.

Regarding `CN(CC(=O)O)Cc1cc(=O)oc2cc(Oc3ccccc3)ccc12.Cl` [PS-RG0097], the “IC90 MAO-B (μM)” value in test [1] is “Does not”. Further, the “IC50 MAO-A (μM)” value in test [2] (setting [3]) is on record as “Does not”.

For `CN(CC(=O)O)Cc1cc(=O)oc2cc(OCc3ccccc3)ccc12.Cl` [PS-RG0098, N-((7-(benzyloxy)-2-oxo-2H-chromen-4-yl)methyl)-N-methylglycine hydrochloride], in test [1], the IC90 came to 4.1 µM and the negative-log IC50 (pIC50) is 6.10. For the same compound, the “IC50 MAO-A (μM)” value in test [2] (setting [3]) is “Does not”.

On to `C[C@H](Cc1ccc(OCc2ccccc2Cl)cc1)N(C)CC(=O)O` [PS-RG0121, N—((R)-(1-(4-(2-chlorobenzyloxy)phenyl)propan-2-yl)(methyl))glycine hydrochloride], for which, in test [1], the IC90 is 8.13 µM and the negative logarithm of the IC50 (pIC50) is 6.18. Also, the “IC50 MAO-A (μM)” value in test [2] (setting [3]) is reported as “Does not”.

For `COC(=O)[C@H](Cc1ccc(OCc2cccc(Cl)c2)cc1)N(C)CC(=O)O` [PS-RG0122, N-Carboxymethyl-N-methyl-O-3-chlorobenzyloxytyrosine methyl ester hydrochloride], in test [1], the IC90 was found to be 19.1 µM and the pIC50 is 5.84. In test [2] (setting [3]), the “IC50 MAO-A (μM)” value is recorded as “Does not”.

Take `COC(=O)[C@H](Cc1ccc(OCc2ccccc2)cc1)N(C)CC(=O)O.Cl` [PS-RG0123, N-Carboxymethyl)-N-(methyl-O-benzyloxytyrosine methyl ester hydrochloride]: in test [1], the IC90 is 354 µM and the pIC50 is 5.00. Moreover, the “IC50 MAO-A (μM)” value in test [2] (setting [3]) was “Does not”.

In the case of `C[C@H](Cc1ccc(OCc2ccccc2C#N)cc1)N(C)CC(=O)O.Cl` [PS-RG0171, (R)—N-(1-(4-((2-cyanobenzyl)oxy)phenyl)propan-2-yl)-N-methylglycine hydrochloride], in test [1], the IC90 came out at 1080 µM and the pIC50 is 4.89. The “IC50 MAO-A (μM)” value in test [2] (setting [3]) is “Does not”.

As to `C[C@H](Cc1ccc(OCc2cccc(C#N)c2)cc1)N(C)CC(=O)O.Cl` [PS-RG0172, (R)—N-(1-(4-((3-cyanobenzyl)oxy)phenyl)propan-2-yl)-N-methylglycine hydrochloride], in test [1], the IC90 was found to be 1840 µM and the pIC50 is 4.71. The “IC50 MAO-A (μM)” value in test [2] (setting [3]) is “Does not”.

As for `C[C@H](Cc1ccc(OCc2cccc(F)c2)cc1)N(C)CC(=O)O.Cl` [PS-RG0173, (R)—N-(1-(4-((3-fluorobenzyl)oxy)phenyl)propan-2-yl)-N-methylglycine hydrochloride], in test [1], the IC90 turned out to be 13.5 µM and the pIC50 is 6.11. The “IC50 MAO-A (μM)” value in test [2] (setting [3]) is given as “Does not”.

On to `C[C@H](Cc1ccc(OCc2cc(F)cc(F)c2)cc1)N(C)CC(=O)O.Cl` [PS-RG0174, (R)—N-(1-(4-((3,5-difluorobenzyl)oxy)phenyl)propan-2-yl)-N-methylglycine hydrochloride], for which, in test [1], the 90% effect concentration (IC90) amounted to 6.7 µM and the pIC50 was 6.10. Moreover, the “IC50 MAO-A (μM)” value in test [2] (setting [3]) was “Does not”.

Consider `CN(CC(=O)O)[C@H](CO)Cc1ccc(OCc2ccccc2)cc1` [PS-RG0188, (S)—N-(1-(4-(benzyloxy)phenyl)-3-hydroxypropan-2-yl)-N-methylglycine], for which, in test [1], the IC90 turned out to be 19.7 µM and the pIC50 was 6.13. Besides, in test [2] (setting [3]), the “IC50 MAO-A (μM)” value is on record as “Does not”.

With `O=C([O-])C1=N[C@@H](Cc2ccccc2)CO1.[Na+]` [PS-RG0200], the “IC90 MAO-B (μM)” value in test [1] was “Does not”. The “IC50 MAO-A (μM)” value in test [2] (setting [3]) is on record as “Does not”.

The term IC90 denotes the concentration needed for an effect of 90%. The pIC50 is the negative decadic logarithm of the IC50, by convention in mol/L. The term IC50 denotes the concentration that inhibits the measured activity by half.

The values above are taken from US10196345B2, “MAO-B selective inhibitor compounds, pharmaceutical compositions thereof and uses thereof” (The University of British Columbia, priority 2013, dated 2019).
